Test results published in patent US20110046185A1, “Arylchalcogenoarylalkyl-substituted imidazolidine-2,4-diones, process for preparation thereof, medicaments comprising these compounds and use thereof” (SANOFI-AVENTIS, priority 2008, published 2011).
Where two headings read alike, the source gives them in different places.

Columns and labels:
[1] = target: T1, hCB1R (Homo sapiens, UniProt P21554); assay: Binding to the CB1 receptor ([3H]-SR141716A displacement, CHO-K1/cannabinoid CB1 protein); set-up: expressed in transfected cells
Description: Test compounds: The compounds (3 μl, 10 mM, 100% DMSO), pipetted into 96-well PP microtiter plates, were diluted with 27 μl of 100% DMSO (dimethyl sulfoxide). Proceeding from this solution, further 3-fold dilution steps were undertaken by transferring 10 μl in each case to a new PP microtiter plate and adding a further 20 μl of 100% DMSO. In each case 6 μl of these solutions were transferred into new 96-well PP microtiter plates and made up with 144 μl of assay buffer. The end concentrations ranged from 10 μM to 0.005 μM.
Negative control: AM 251, dissolved in assay buffer with 1% DMSO, was added to the dilution series in the microtiter plates as a control. The end concentration was 1 μM.
Blank control: assay buffer with 1% DMSO was added to the dilution series of the microtiter plates as a blank control.
The values were calculated using the corrected raw data.
The values reported were obtained as average values of a double determination. The IC50 values were calculated from the measurements with the program Xlfit, formula 205. Ki values were obtained from the IC50 and Kd values utilizing the Cheng-Prusoff equation: […]
Literature: Cheng, Y.-C., and Prusoff, W. H. (1973) Biochem. Pharmacol 22, 3099-3108 Results: Ki values of example compounds;

[2] = target: T1, hCB1R; assay: In vitro functional FLIPR assay with recombinant HEK293 cells, cannabinoid 1 receptor; assay type: cell-based; set-up: expressed in transfected cells; host or cells: HEK293; details: recombinant HEK293 cells expressing CB1 and Galpha16; Ca2+ change vs reference agonist
Description: (§1) Function-testing assays were performed by means of the FLIPR technique (“Fluorometric Imaging Plate Reader”, Molecular Devices Corp.).
(§2) To this end, ligand-induced changes in the intracellular concentration of Ca^2+ in recombinant HEK293 cells, which expressed both a cannabinoid receptor (CB1 or CB2) and G-protein Galpha16, were determined. For the studies, cells were sown into 96-well microtiter plates (60 000 cells/well) and left to grow overnight. The medium was removed and the cells were incubated in buffer which contained the fluorescent dye Fluo-4. After this loading with dye, the cells were washed, test substance was added dissolved in buffer, the mixture was incubated for 20 minutes, a known cannabinoid receptor agonist as a reference agonist was added in buffer and, finally, the changes in the intracellular Ca^2+ concentration were measured in the FLIPR unit.
(§3) Results were presented as the percentage change relative to the control (0%: analogous experiment without test substance and without reference agonist, i.e. only with buffer; 100%: analogous experiment without test substance, but with reference agonist in excess), and used to calculate dose/action curves, and IC50 values were determined.

[3] = target: T2, hCB2R (Homo sapiens, UniProt P34972); assay: In vitro functional FLIPR assay with recombinant HEK293 cells, cannabinoid 2 receptor; assay type: cell-based; details: recombinant HEK293 cells expressing CB2 and Galpha16; Ca2+ change vs reference agonist
T2 construct: expressed in transfected cells; host or cells: HEK293
Description: as §1, §2, §3

[4] = [3H]-SR141716A 0.5 nM, Ki from IC50 by Cheng-Prusoff, average of double determination, read-out: hCB1R, binding Ki

T2 sequence (P34972 whole entry): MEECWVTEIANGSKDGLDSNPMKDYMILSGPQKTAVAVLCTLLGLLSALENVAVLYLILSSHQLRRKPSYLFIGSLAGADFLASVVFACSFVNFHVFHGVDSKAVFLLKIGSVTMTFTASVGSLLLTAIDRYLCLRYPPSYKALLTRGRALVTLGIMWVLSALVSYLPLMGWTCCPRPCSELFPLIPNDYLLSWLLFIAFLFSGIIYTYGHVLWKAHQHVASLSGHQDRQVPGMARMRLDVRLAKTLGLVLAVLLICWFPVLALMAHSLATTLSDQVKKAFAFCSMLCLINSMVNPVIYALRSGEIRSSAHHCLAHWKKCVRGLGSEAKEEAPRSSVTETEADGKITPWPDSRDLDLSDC
T1 sequence (P21554 whole entry): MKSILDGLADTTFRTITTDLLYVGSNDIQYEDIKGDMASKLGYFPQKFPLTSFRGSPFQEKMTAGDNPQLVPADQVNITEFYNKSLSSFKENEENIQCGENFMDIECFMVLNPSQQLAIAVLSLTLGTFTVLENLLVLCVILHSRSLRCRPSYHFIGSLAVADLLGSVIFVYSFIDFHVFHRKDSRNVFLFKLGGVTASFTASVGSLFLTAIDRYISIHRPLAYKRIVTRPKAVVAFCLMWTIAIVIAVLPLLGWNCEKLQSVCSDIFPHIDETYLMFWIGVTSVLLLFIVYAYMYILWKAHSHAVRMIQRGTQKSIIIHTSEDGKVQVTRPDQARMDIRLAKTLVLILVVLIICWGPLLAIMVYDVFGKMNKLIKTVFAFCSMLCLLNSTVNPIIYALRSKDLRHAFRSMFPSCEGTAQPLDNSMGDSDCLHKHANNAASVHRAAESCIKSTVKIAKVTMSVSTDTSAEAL

Row | SMILES | Ki [1, 4] | IC50 [2] | IC50 [3] | Ki [1]
1 | CC1(C)C(=O)N(c2cccc(C(F)(F)F)c2)C(=O)N1Cc1ccccc1Oc1ccccc1 [Example 8] | 249 nM | – | – | –
2 | CC1(C)C(=O)N(c2cc(C(F)(F)F)ccc2F)C(=O)N1Cc1ccccc1Oc1ccccc1 [Example 12] | 284 nM | – | – | –
3 | CC1(C)C(=O)N(c2cccc(SC(F)(F)F)c2)C(=O)N1Cc1ccccc1Oc1ccccc1 [Example 14] | 289 nM | – | – | –
4 | CC1(C)C(=O)N(c2ccnc(Cl)c2)C(=O)N1Cc1ccccc1Oc1ccccc1 [Example 82] | 2 nM | 100 nM | > 10000 nM | –
5 | CC1(C)C(=O)N(c2ccnc(C(F)(F)F)c2)C(=O)N1Cc1ccccc1Oc1ccccc1 [Example 83] | 24 nM | – | – | –
6 | CC1(C)C(=O)N(c2ccc(C#N)nc2)C(=O)N1Cc1ccccc1Oc1ccccc1 [Example 86] | 311 nM | – | – | –
7 | COC(=O)c1ccc(Oc2ccccc2CN2C(=O)N(c3ccc(C#N)c(C(F)(F)F)c3)C(=O)C2(C)C)cc1 [Example 96] | – | 152 nM | – | 22 nM
8 | CC1(C)C(=O)N(c2ccc(C#N)c(C(F)(F)F)c2)C(=O)N1Cc1ccccc1Oc1ccc(C(=O)O)cc1 [Example 97, 4-{2-[3-(4-Cyano-3-trifluoromethylphenyl)-5,5-dimethyl-2,4-dioxo-imidazolidin-1-ylmethyl]phenoxy}benzoic acid] | 533 nM | – | > 10000 nM | –
9 | CC1(C)C(=O)N(c2ccc(C#N)c(C(F)(F)F)c2)C(=O)N1Cc1ccccc1Oc1ccc(C(N)=O)cc1 [Example 98, 4-{2-[3-(4-Cyano-3-trifluoromethylphenyl)-5,5-dimethyl-2,4-dioxo-imidazolidin-1-ylmethyl]phenoxy}benzamide] | – | 507 nM | > 10000 nM | –
10 | CC1(C)C(=O)N(c2ccc(C#N)c(C(F)(F)F)c2)C(=O)N1Cc1ccccc1Sc1ccc(Cl)cc1 [Example 105, 4-{3-[2-(4-Chlorophenylsulfanyl)benzyl]-4,4-dimethyl-2,5-dioxoimidazolidin-1-yl}-2-trifluoromethylbenzonitrile] | – | – | > 10000 nM | 44 nM
11 | CC1(C)C(=O)N(c2ccc(C#N)c(C(F)(F)F)c2)C(=O)N1Cc1ccccc1[S+]([O-])c1ccc(Cl)cc1 (centres unmarked) [Example 107, 4-{3-[2-(4-Chlorobenzenesulfinyl)benzyl]-4,4-dimethyl-2,5-dioxoimidazolidin-1-yl}-2-trifluoromethylbenzonitrile] | 232 nM | – | – | –
